In general, IC50 refers to the midpoint of a concentration-inhibition curve.

The assay addresses T1, chicken gizzard smooth muscle myosin subfragment-1 chemically crosslinked to cardiac or skeletal actin (Gallus gallus, UniProt P10587).
T1 construct: chicken gizzard smooth muscle myosin subfragment-1; from tissue; host or cells: chicken gizzard
The assay can be described thus: Smooth muscle myosin ATPase dose response assay (pyruvate kinase/horseradish peroxidase/pyruvate oxidase-coupled, amplex red fluorescence). The conditions noted are these: read-out: IC50 Arithmetic Mean. The format is biochemical. In outline: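 EDC/NHS-crosslinked S1–actin, amount set per prep by rate titration. Buffer: 12 mM K-PIPES pH 7.00 (22° C), 100 mM KCl, 2 mM MgCl2, 0.15 mM ATP, 0.1 mM PEP, 2 mM KPi, 0.1 mM amplex red. Read ex 480/em 615 nm; IC50 = midpoint, 4-param Hill fit.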

T1 sequence (P02607 2-151): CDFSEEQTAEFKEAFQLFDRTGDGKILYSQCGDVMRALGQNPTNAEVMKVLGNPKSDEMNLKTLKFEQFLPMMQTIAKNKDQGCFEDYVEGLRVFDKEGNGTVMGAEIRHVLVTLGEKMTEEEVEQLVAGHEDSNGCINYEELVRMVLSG
T1 sequence (P10587 84-789): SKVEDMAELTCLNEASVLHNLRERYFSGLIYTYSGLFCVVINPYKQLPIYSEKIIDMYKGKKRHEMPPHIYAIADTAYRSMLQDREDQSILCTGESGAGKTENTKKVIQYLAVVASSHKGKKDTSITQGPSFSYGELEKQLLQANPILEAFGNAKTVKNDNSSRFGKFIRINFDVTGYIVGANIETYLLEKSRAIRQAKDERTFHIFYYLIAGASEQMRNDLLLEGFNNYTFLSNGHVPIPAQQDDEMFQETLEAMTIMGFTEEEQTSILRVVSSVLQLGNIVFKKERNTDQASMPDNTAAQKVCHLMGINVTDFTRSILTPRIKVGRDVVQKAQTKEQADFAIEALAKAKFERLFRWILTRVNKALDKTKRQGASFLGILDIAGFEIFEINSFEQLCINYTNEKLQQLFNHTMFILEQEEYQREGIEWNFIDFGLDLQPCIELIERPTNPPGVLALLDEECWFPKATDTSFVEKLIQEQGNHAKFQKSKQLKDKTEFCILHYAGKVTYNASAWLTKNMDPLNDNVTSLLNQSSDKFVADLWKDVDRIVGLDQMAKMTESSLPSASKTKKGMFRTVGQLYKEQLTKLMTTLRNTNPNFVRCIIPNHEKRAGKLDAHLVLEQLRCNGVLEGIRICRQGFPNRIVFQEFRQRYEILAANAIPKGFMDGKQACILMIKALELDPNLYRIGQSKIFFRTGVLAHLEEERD

Regarding `CC(C)C[C@@H](N)CNC(=O)c1ccc(-c2ccccc2C#N)nc1NCCc1cccc(F)c1` [N-((2R)-2-amino-4-methylpentyl)(6-(2-cyanophenyl)-2-{[2-(3-fluorophenyl)ethyl]amino}(3-pyridyl))carboxamide], the IC50 was determined as 1.24 µM.
Consider `C[C@@H](N)CNC(=O)c1cc(F)c(-c2cnn(C)c2)nc1NCCc1cccc(F)c1` [N-((2R)-2-aminopropyl)(5-fluoro-2-{[2-(3-fluorophenyl)ethyl]amino}-6-(1-methylpyrazol-4-yl)(3-pyridyl))carboxamide], for which the 50% inhibitory concentration (IC50) came out at 0.398 µM.
Then `C[C@@H](N)CNC(=O)c1cc(F)c(-c2cn[nH]c2)nc1NCCc1cccc(F)c1` [N-((2R)-2-aminopropyl)(5-fluoro-2-{[2-(3-fluorophenyl)ethyl]amino}-6-pyrazol-4-yl(3-pyridyl))carboxamide], with 0.443 µM; and `C[C@@H](N)CNC(=O)c1ccc(-c2ccccc2C#N)nc1NCCc1cccc(F)c1` [N-((2R)-2-aminopropyl)(6-(2-cyanophenyl)-2-{[2-(3-fluorophenyl)ethyl]amino}(3-pyridyl))carboxamide], with 0.399 µM.
The same measure for `C[C@H](CNC(=O)c1cc(F)c(-c2cnn(C)c2)nc1NCCc1cccc(F)c1)C(N)=O` [N-((2R)-2-carbamoylpropyl)(5-fluoro-2-{[2-(3-fluorophenyl)ethyl]amino}-6-(1-methylpyrazol-4-yl)(3-pyridyl))carboxamide]: 0.089 µM; for `CC[C@@H](CO)CNC(=O)c1cc(F)c(-c2cnn(C)c2)nc1NCCc1cccc(F)c1` [N-((2R)-2-ethyl-3-hydroxypropyl)(5-fluoro-2-{[2-(3-fluorophenyl)ethyl]amino}-6-(1-methylpyrazol-4-yl)(3-pyridyl))carboxamide]: 0.039 µM.
The same measure for `CC[C@@H](CO)CNC(=O)c1cc(F)c(-c2cn[nH]c2)nc1NCCc1cccc(F)c1` [N-((2R)-2-ethyl-3-hydroxypropyl)(5-fluoro-2-{[2-(3-fluorophenyl)ethyl]amino}-6-pyrazol-4-yl(3-pyridyl))carboxamide]: 0.052 µM; for `CC(=O)[C@H](C)CNC(=O)c1cc(F)c(-c2cnn(C)c2)nc1NCCc1cccc(F)c1` [N-((2R)-2-methyl-3-oxobutyl)(5-fluoro-2-{[2-(3-fluorophenyl)ethyl]amino}-6-(1-methylpyrazol-4-yl)(3-pyridyl))carboxamide]: 0.109 µM; for `C[C@H](CNC(=O)c1cc(F)c(-c2cnn(C)c2)nc1NCCc1cccc(F)c1)C(C)(C)O` [N-((2R)-3-hydroxy-2,3-dimethylbutyl)(5-fluoro-2-{[2-(3-fluorophenyl)ethyl]amino}-6-(1-methylpyrazol-4-yl)(3-pyridyl))carboxamide]: 1.23 µM.
In the case of `CC(O)[C@H](C)CNC(=O)c1cc(F)c(-c2cnn(C)c2)nc1NCCc1cccc(F)c1` (stereo partly drawn) [N-((2R)-3-hydroxy-2-methylbutyl)(5-fluoro-2-{[2-(3-fluorophenyl)ethyl]amino}-6-(1-methylpyrazol-4-yl)(3-pyridyl))carboxamide], the IC50 was found to be 0.283 µM.
The same measure for `C[C@@H](CO)CNC(=O)c1cc(F)c(-c2cnn(C)c2)nc1NCCc1cccc(F)c1` [N-((2R)-3-hydroxy-2-methylpropyl)(5-fluoro-2-{[2-(3-fluorophenyl)ethyl]amino}-6-(1-methylpyrazol-4-yl)(3-pyridyl))carboxamide]: 0.05 µM; for `C[C@@H](CO)CNC(=O)c1cc(F)c(-c2cn[nH]c2)nc1NCCc1cccc(F)c1` [N-((2R)-3-hydroxy-2-methylpropyl)(5-fluoro-2-{[2-(3-fluorophenyl)ethyl]amino}-6-pyrazol-4-yl(3-pyridyl))carboxamide]: 0.059 µM.
For `C[C@@H](CO)CNC(=O)c1ccc(-c2ccccc2C#N)nc1NCCc1cccc(F)c1` [N-((2R)-3-hydroxy-2-methylpropyl)(6-(2-cyanophenyl)-2-{[2-(3-fluorophenyl)ethyl]amino}(3-pyridyl))carboxamide], the IC50 worked out at 0.061 µM.
Then `C[C@@H](CN=[N+]=[N-])CNC(=O)c1cc(F)c(-c2cnn(C)c2)nc1NCCc1cccc(F)c1` [N-((2R)-4-diazo-2-methyl-4-azabut-4-enyl)(5-fluoro-2-{[2-(3-fluorophenyl)ethyl]amino}-6-(1-methylpyrazol-4-yl)(3-pyridyl))carboxamide], with 0.118 µM; and `N#Cc1ccccc1-c1ccc(C(=O)NC[C@H](N)C(N)=O)c(NCCc2cccc(F)c2)n1` [N-((2S)-2-amino-2-carbamoylethyl)(6-(2-cyanophenyl)-2-{[2-(3-fluorophenyl)ethyl]amino}(3-pyridyl))carboxamide], with 0.669 µM; and `N#Cc1ccccc1-c1ccc(C(=O)NC[C@H](N)CO)c(NCCc2cccc(F)c2)n1` [N-((2S)-2-amino-3-hydroxypropyl)(6-(2-cyanophenyl)-2-{[2-(3-fluorophenyl)ethyl]amino}(3-pyridyl))carboxamide], with 1.59 µM.
The same measure for `C[C@H](N)CNC(=O)c1ccc(-c2ccccc2C#N)nc1NCCc1cccc(F)c1` [N-((2S)-2-aminopropyl)(6-(2-cyanophenyl)-2-{[2-(3-fluorophenyl)ethyl]amino}(3-pyridyl))carboxamide]: 0.515 µM.
The same measure for `C[C@@H](CN)CNC(=O)c1cc(F)c(-c2cnn(C)c2)nc1NCCc1cccc(F)c1` [N-((2S)-3-amino-2-methylpropyl)(5-fluoro-2-{[2-(3-fluorophenyl)ethyl]amino}-6-(1-methylpyrazol-4-yl)(3-pyridyl))carboxamide]: 1.05 µM.
Regarding `C[C@H](CO)CNC(=O)c1cc(F)c(-c2cnn(C)c2)nc1NCCc1cccc(F)c1` [N-((2S)-3-hydroxy-2-methylpropyl)(5-fluoro-2-{[2-(3-fluorophenyl)ethyl]amino}-6-(1-methylpyrazol-4-yl)(3-pyridyl))carboxamide], the half-maximal inhibitory concentration (IC50) was 0.09 µM.
The same measure for `N#Cc1ccccc1-c1ccc(C(=O)N[C@@H]2CCCNC2=O)c(NCCc2cccc(F)c2)n1` [N-((3R)-2-oxo(3-piperidyl))(6-(2-cyanophenyl)-2-{[2-(3-fluorophenyl)ethyl]amino}(3-pyridyl))carboxamide]: 0.352 µM; for `N#Cc1ccccc1-c1ccc(C(=O)N[C@H]2CCCNC2=O)c(NCCc2cccc(F)c2)n1` [N-((3S)-2-oxo(3-piperidyl))(6-(2-cyanophenyl)-2-{[2-(3-fluorophenyl)ethyl]amino}(3-pyridyl))carboxamide]: 5.61 µM.
Then `N#Cc1ccccc1-c1ccc(C(=O)N[C@H]2CCNC2=O)c(NCCc2cccc(F)c2)n1` [N-((3S)-2-oxopyrrolidin-3-yl)(6-(2-cyanophenyl)-2-{[2-(3-fluorophenyl)ethyl]amino}(3-pyridyl))carboxamide], with 3.25 µM.
Then `N#Cc1ccccc1-c1ccc(C(=O)NCC2CCCCCN2)c(NCCc2cccc(F)c2)n1` (stereo not shown) [N-(azaperhydroepin-2-ylmethyl)(6-(2-cyanophenyl)-2-{[2-(3-fluorophenyl)ethyl]amino}(3-pyridyl))carboxamide], with 2.5 µM; and `NC(=O)CNC(=O)c1ccc(-c2ccc(CO)s2)nc1NCCc1cccc(F)c1` [N-(carbamoylmethyl)(2-{[2-(3-fluorophenyl)ethyl]amino}-6-[5-(hydroxymethyl)(2-thienyl)](3-pyridyl))carboxamide], with 0.496 µM; and `NC(=O)CNC(=O)c1cc(F)c(-c2cn[nH]c2)nc1NCCc1cccc(F)c1` [N-(carbamoylmethyl)(5-fluoro-2-{[2-(3-fluorophenyl)ethyl]amino}-6-pyrazol-4-yl(3-pyridyl))carboxamide], with 0.14 µM.
Consider `N#Cc1ccccc1-c1ccc(C(=O)NCC(N)=O)c(NCCc2cccc(F)c2)n1` [N-(carbamoylmethyl)(6-(2-cyanophenyl)-2-{[2-(3-fluorophenyl)ethyl]amino}(3-pyridyl))carboxamide], for which the half-inhibitory concentration (IC50) is 0.104 µM.
Then `NC(=O)CNC(=O)c1ccc(-c2ccccc2)nc1NCCc1ccccc1` [N-(carbamoylmethyl){6-phenyl-2-[(2-phenylethyl)amino](3-pyridyl)}carboxamide], with 0.81 µM.
The same measure for `O=C(NCc1ncc[nH]1)c1ccc(-c2ccccc2)nc1NCCc1ccccn1` [N-(imidazol-2-ylmethyl){6-phenyl-2-[(2-(2-pyridyl)ethyl)amino](3-pyridyl)}carboxamide]: 6.15 µM; for `O=C(NCc1ccno1)c1ccc(-c2ccccc2)nc1NCCc1ccccn1` [N-(isoxazol-5-ylmethyl){6-phenyl-2-[(2-(2-pyridyl)ethyl)amino](3-pyridyl)}carboxamide]: 0.836 µM.
Then `CC(C)NC(=O)c1ccc(-c2ccccc2)nc1NCCc1ccccn1` [N-(methylethyl){6-phenyl-2-[(2-(2-pyridyl)ethyl)amino](3-pyridyl)}carboxamide], with 13.3 µM; and `O=C(NCC1CCCO1)c1ccc(-c2ccccc2)nc1NCCc1ccccn1` (stereo not shown) [N-(oxolan-2-ylmethyl){6-phenyl-2-[(2-(2-pyridyl)ethyl)amino](3-pyridyl)}carboxamide], with 11 µM.
With `NCCNc1ncccc1CNC(=O)c1ccc(-c2cn[nH]c2)nc1NCCc1cccc(F)c1` [N-({2-[(2-aminoethyl)amino](3-pyridyl)}methyl)(2-{[2-(3-fluorophenyl)ethyl]amino}-6-pyrazol-4-yl(3-pyridyl))carboxamide], the 50% inhibitory concentration (IC50) is 0.122 µM.
The same measure for `N#Cc1ccccc1-c1ccc(C(=O)NCc2cccnc2NCCN)c(NCCc2cccc(F)c2)n1` [N-({2-[(2-aminoethyl)amino](3-pyridyl)}methyl)(6-(2-cyanophenyl)-2-{[2-(3-fluorophenyl)ethyl]amino}(3-pyridyl))carboxamide]: 0.013 µM; for `NCCCNc1ncccc1CNC(=O)c1ccc(-c2cn[nH]c2)nc1NCCc1cccc(F)c1` [N-({2-[(3-aminopropyl)amino](3-pyridyl)}methyl)(2-{[2-(3-fluorophenyl)ethyl]amino}-6-pyrazol-4-yl(3-pyridyl))carboxamide]: 0.129 µM.

The values above are taken from US7932270B2 (Cytokinetics, Inc., priority 2006, dated 2011).
